Results: patent US20240298644A1, “HETEROCYCLIC COMPOUND AND RESISTANT HARMFUL ARTHROPOD- CONTROLLING METHOD FOR COMPOSITION CONTAINING SAME” (SUMITOMO CHEMICAL COMPANY, LIMITED, priority 2021, published 2024)

What was measured:
[1] = Test method 5: spray on tomato seedlings carrying larvae of resistant tobacco whiteflies; conditions: Bemisia tabaci
[2] = Test method 2: spray on rice seedlings, resistant brown planthopper larvae released; format: in vivo; conditions: Nilaparvata lugens, Comparative Test Example 2, 500 ppm
Experimental: Test compounds are made to a formulation according to a similar method to that described in the Formulation example 5, and thereto is added water containing 0.03 v/v % of Shindain (registered trademark) to prepare a diluted solution containing a prescribed concentration of the test compound.
Rice (Oryza sativa) seedling (on the developmental stage of the second true leaf) is planted in a container, and the diluted solutions are sprayed into the seedling in a ratio of 10 mL/seedling. Thereafter, 20 of 3rd instar larvae of resistant brown planthoppers (Nilaparvata lugens) (lineages collected in Kagoshima prefecture in 2018, screened with imidacloprid) are released onto the rice leaves. After 6 days, the number of the surviving insects is examined and the mortality is calculated by the following equation.
Mortality (%)={1−the number of the surviving insects/20}×100

[3] = system: resistant cotton aphids (Aphis gossypii) (lineages collected in Miyazaki prefecture in 2012, screened with imidacloprid); experiment: Test method 1: foliar spray on cucumber seedlings infested with resistant cotton aphids; format: in vivo; conditions: Comparative Test Example 1, 500 ppm
Experimental: Test compounds are made to a formulation according to a similar method to that described in the Formulation example 1, and thereto is added water containing 0.03 v/v % of Shindain (registered trademark) to prepare a diluted solution containing a prescribed concentration of the test compound.
Cucumber (cucumber sativus) seedling (on the developmental stage of the second true leaf) is planted in a cup, and approximately 30 resistant cotton aphids (Aphis gossypii) (all stages of life) (lineages collected in Miyazaki prefecture in 2012, screened with imidacloprid). After one day, the diluted solutions are sprayed into the seedling at a ratio of 10 mL/seedling. After 5 days, the number of the surviving insects is examined and the controlling value is calculated by the following equation.
Controlling value (%)−{1−(Cb×Tai)/(Cai×Tb)}×100
wherein the symbols in the equation represent the following descriptions. • Cb: Number of the test insects in untreated group; • Cai: Number of the surviving insects at the time of the examination in untreated group; • Tb: Number of the test insects in treated group; • Tai: Number of the surviving insects at the time of the examination in treated group;
Here the “untreated group” represents a group where a similar treatment procedure to that of treated group except not using the test compound is done.

Measured: mortality at 500 ppm

N#Cc1ccc(-c2nc(-c3c(Cl)cncc3Cl)no2)cc1 [Comparative compound 1]
10%: all assays above
